Measured values published in patent US10543162B2 (Rutgers, The State University of New Jersey, priority 2015, dated 2020).

Assays:
[1] = Dienol (4) Log P determination by reverse-phase HPLC; type: physicochemical; conditions: for chromatographic logP: from HPLC log kw via calibration curve of reference samples' published Log Po,w, read-out: Calculated Log P Values; for Calculated kw: retention factor at 100% buffer, extrapolated from HPLC retention factors at MeOH:buffer 45:55→60:40, 25° C.
Procedure: Log P, partitioning coefficient of respective compounds between a hydrophilic (aqueous) and lipophilic (oil) phase, studies were conducted to investigate the relative hydrophobicity of Dienols (4). Using HPLC equipped with an XTerra reverse-phase C18 (RP18) 3.5 μm 4.6×150 mm column (Waters, Milford, Mass.) and Waters 2695 Separations Module, sample retention times were analyzed via a Waters 2487 Dual λ Absorbance Detector monitoring 254 and 270 nm. Mobile phases of HPLC grade methanol (MeOH) and 50 mM KH2PO4 with 1% formic acid in HPLC grade water were utilized at varying ratios (45:55→60:40) and run at 1 mL/min flow rate and 25° C. (Ayouni, et al., Chromatographia 2005, 62, (5-6), 251-255). All samples were first dissolved in DMSO and subsequently diluted with phosphate-buffer saline (PBS) to acquire 1% DMSO solutions and filtered through 0.22 μm PVDF syringe filters prior to autoinjection (20 μL).
Dienol retention factor (k) for each methanol concentration was calculated according to equation one, where tR and t0 are the retention times of the Dienols and dead time, as determined by the injection of sodium nitrate (Ayouni, et al., Chromatographia 2005, 62, (5-6), 251-255), respectfully. From the obtained retention factors the kw, retention factor at 100% buffer, was extrapolated. Hydroxybenzyl alcohol, benzyl alcohol, 2-phenylethanol, methylparaben, anisole, toluene, and thymol were used as reference samples and their retention times acquired. Using reference samples' published Log Po,w values (OECD Nuclear Energy Agency.; Organisation for Economic Co-operation and Development. In OECD guidelines for the testing of chemicals 117, Organisation for Economic Co-Operation and Development: Paris, 2004), a calibration curve was generated in which Log Po,w values were plotted on the y-axis whereas log kw values, obtained from the same method as above, were plotted on the x-axis (Ouimet, et al., Biomacromolecules 2015, 16, 2911-2919). Dienol Log P values were then calculated from the curve using equation 2. kw=(tR−t0)/t0 Equation 1 Log P=slope×log kw+y−intercept Equation 2
Thus, Dienol Log P values were extrapolated from an HPLC method to determine lipophilicity (OECD Nuclear Energy Agency.; Organisation for Economic Co-operation and Development. In OECD guidelines for the testing of chemicals 117, Organisation for Economic Co-Operation and Development: Paris, 2004). Retention factors (k) were calculated according to equation 1 for each concentration of MeOH and kw values extrapolated based off the retention times (Table 1).

[2] = system: 3T3 mouse fibroblasts; assay: Cytotoxicity / cytocompatibility (MTS cell viability); type: cell-based; conditions: 1000 μM, after 24 h
Procedure: In vitro cytocompatibility studies were performed by culturing 3T3 mouse fibroblasts in cell media (Dulbecco's Modified Eagle Medium supplemented with 10% Fetal Bovine Serum, 1% Penicillin Streptomycin, and 1% L-glutamate) containing the KA poly(carbonate-esters). Polymers (5a-5c, 6a-6e) and Dienols (4a-4e) were first sterilized under UV at λ=254 nm for 900 s (Spectronics Corporation, Westbury, N.Y.) and subsequently dissolved in DMSO to acquire a stock solution. The stock solution was then serial diluted with cell media. Cells were seeded in a 96-well plate at 2,000 cells/well in […]. Following incubation for 1 h, polymer-containing media in 1% DMSO, at concentrations capable of inhibiting tyrosinase (0.1 mg/mL, 0.01 mg/mL and 0.001 mg/mL) were added to allocated wells in a 96-well plate and incubated at 37° C. DMSO (1%) in cell media was used as a negative control.
Cell viability was determined using CellTiter 96® Aqueous One Solution Cell Proliferation Assay. After 24 h, 48 h, and 72 h incubation with polymers, 20 μL of (3-(4,5-dimethylthiazol-2-yl)-5-(3-carboxymethoxyphenyl)-2-(4-sulfophenyl)-2H-tetrazolium) (MTS) reagent was added to each well and further incubated for 4 h at 37° C. The absorbance was then recorded with a microplate reader (Coulter, Boulevard Brea, Calif.) at 490 nm. […]

| chromatographic logP [1] | Calculated kw [1] | SMILES | cytocompatibility [2] |
| --- | --- | --- | --- |
| 0.235 | 0.688 | O=C(COCCOCCOCC(=O)OCc1cc(=O)c(O)co1)OCc1cc(=O)c(O)co1 [Compound 4e, KA (Tetraglycolic) Dienol] |  |
| 2.59 | 16.0 | O=C(CCCCCCCC(=O)OCc1cc(=O)c(O)co1)OCc1cc(=O)c(O)co1 [Compound 4c, KA (Azelaic) Dienol] |  |
| 1.17 | 2.40 | O=C(CCCCC(=O)OCc1cc(=O)c(O)co1)OCc1cc(=O)c(O)co1 [Compound 4b, KA (adipic) Dienol] |  |
|  |  | O=c1cc(CO)occ1O [Kojic Acid, 5-Hydroxy-2-(hydroxymethyl)-4-pyrone] | slightly cytotoxic |
| 3.1 | 31.6 | O=C(CCCCCCCCC(=O)OCc1cc(=O)c(O)co1)OCc1cc(=O)c(O)co1 [Compound 4d, KA (sebacic) Dienol] |  |
| 0.353 | 0.806 | O=C(CCC(=O)OCc1cc(=O)c(O)co1)OCc1cc(=O)c(O)co1 [Compound 4a, KA (succinic) Dienol] |  |
